The values below come from patent US20200109126A1 (priority 2017, published 2020).

In assay [1] the target is μOR (Homo sapiens, UniProt P35372). Description: β-arrestin recruitment at μOR with GRK2 co-expression. Format: cell-based. (Activated receptors often draw arrestin, which recruitment assays turn into a signal.)
Assay [2] has as its system Oprm1−/− and wild-type C57Bl/6J mice. Nature of the assay: Hot plate in μOR knockout mice and subcategorization of affective/reflexive pain. Format: in vivo, mouse. Here is the method:
Analgesia in μOR knockout mice and subcategorization of affective/reflexive pain: Oprm1−/− and wild-type C57Bl/6J mice (male; 8-11 weeks) were acclimated to the testing environment and thermal-plate equipment for three non-consecutive days between 11 A.M. and 1 P.M. prior to any pharmacological studies. Acclimation was achieved by individually confining mice within an enclosed semi-transparent red plastic cylinder (10 cm D×15 cm H) on a raised metal-mesh rack (61 cm H) for 30 minutes, and then exposing each mouse to the thermal-plate equipment (non-heated; floor dimensions, 16.5×16.5 cm; Bioseb), while confined within a clear plastic chamber (16 L×16 W×30H cm). Acclimation exposure to the thermal plate lasted for 30 seconds, and exposure was repeated after 30 minutes to mimic the test day conditions. […] The same experimenter ([…] ) was present throughout the entire duration of habituation and testing to exclude possible olfaction-induced alterations in sensory thresholds.
Cutaneous application of a noxious stimulus, or time spent on a hot plate apparatus can broadly elicit several distinct behavioral responses: 1. Withdrawal reflexes: rapid reflexive retraction or digit splaying of the paw, 2. […] Paw withdrawal reflexes are classically measured in studies of hypersensitivity, and involve simple spinal cord and brainstem circuits. […]

The subject of assay [3] is C57BL/6J mice. Description: Tail-flick assay. The following applies: mouse, in vivo. A general note: Hot-plate and tail-flick tests time the reaction to a heat stimulus.

“Also recorded” adds a separate entry of the source.

Sequence of μOR (P35372 whole entry): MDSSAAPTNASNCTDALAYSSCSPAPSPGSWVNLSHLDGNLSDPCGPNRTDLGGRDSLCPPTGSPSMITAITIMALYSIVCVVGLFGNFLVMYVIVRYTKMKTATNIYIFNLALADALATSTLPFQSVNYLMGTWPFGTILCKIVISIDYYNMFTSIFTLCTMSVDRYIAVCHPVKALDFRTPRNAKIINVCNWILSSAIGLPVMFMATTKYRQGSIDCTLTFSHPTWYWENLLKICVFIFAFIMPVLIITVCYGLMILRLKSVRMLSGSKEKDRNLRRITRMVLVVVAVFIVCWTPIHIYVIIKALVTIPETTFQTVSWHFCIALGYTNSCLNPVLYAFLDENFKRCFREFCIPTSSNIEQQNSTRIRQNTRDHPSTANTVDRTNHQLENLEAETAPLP

For the compound `C[C@@H](Cc1ccsc1)NC(=O)NC[C@H](Cc1ccc(O)cc1)N(C)C` [PZM21, 1-[(S)-2-(Dimethylamino)-3-(4-hydroxyphenyl)propyl]-3-((S)-1-(thiophen-3-yl)propan-2-yl)urea], the “arrestin recruitment with over-expressed GRK2 (in words)” value in assay [1] was “weak arrestin recruitment efficacy compared to DAMGO and even to morphine”. Also, the signaling bias result in assay [1] (operational model, DAMGO as reference) was “undistinguishable from TRV130”. The “affective versus reflexive component of pain” value in assay [2] (hot plate 52.5° C., PZM21 20 mg/kg, 20 mg/kg) is listed as “only modulates the affective component of pain; also recorded: solely confers analgesia to the affective component of pain”. The “analgesic response in μOR knockout mice” value in assay [2] (hot-plate assay) is “completely ablates the observed analgesic response”. Besides, the “analgesic effect in tail-flick assay” value in assay [3] is listed as “no activity; also recorded: no analgesic effect”.
